# Laboratory results: patent US10123993B2, “Cyclic ureas as inhibitors of rock” (BRISTOL-MYERS SQUIBB COMPANY, priority 2015, dated 2018)
# Structures can show the parent of a compound that is named as a salt.
# Molecular target: ROCK2 (Homo sapiens, UniProt O75116)
# Assay: ROCK2 kinase inhibition assay (Caliper LABCHIP, FITC peptide substrate)
# Assay type: biochemical
# Details: 5 μM ATP, 1.5 μM peptide substrate; value ranges
# Procedure, shortened: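 Rho kinase with 5 μM ATP and 1.5 μM FITC-AHA-AKRRRLSSLRA-OH peptide in HEPES pH 7.5, 20 mM MgCl2, 0.015% Brij-35, 4 mM DTT, DMSO <2%. EDTA stop; phospho and non-phospho peptide separated on LabChip. IC50 from dose-response fit.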
# Chain of ROCK2 (O75116 whole entry, species assumed): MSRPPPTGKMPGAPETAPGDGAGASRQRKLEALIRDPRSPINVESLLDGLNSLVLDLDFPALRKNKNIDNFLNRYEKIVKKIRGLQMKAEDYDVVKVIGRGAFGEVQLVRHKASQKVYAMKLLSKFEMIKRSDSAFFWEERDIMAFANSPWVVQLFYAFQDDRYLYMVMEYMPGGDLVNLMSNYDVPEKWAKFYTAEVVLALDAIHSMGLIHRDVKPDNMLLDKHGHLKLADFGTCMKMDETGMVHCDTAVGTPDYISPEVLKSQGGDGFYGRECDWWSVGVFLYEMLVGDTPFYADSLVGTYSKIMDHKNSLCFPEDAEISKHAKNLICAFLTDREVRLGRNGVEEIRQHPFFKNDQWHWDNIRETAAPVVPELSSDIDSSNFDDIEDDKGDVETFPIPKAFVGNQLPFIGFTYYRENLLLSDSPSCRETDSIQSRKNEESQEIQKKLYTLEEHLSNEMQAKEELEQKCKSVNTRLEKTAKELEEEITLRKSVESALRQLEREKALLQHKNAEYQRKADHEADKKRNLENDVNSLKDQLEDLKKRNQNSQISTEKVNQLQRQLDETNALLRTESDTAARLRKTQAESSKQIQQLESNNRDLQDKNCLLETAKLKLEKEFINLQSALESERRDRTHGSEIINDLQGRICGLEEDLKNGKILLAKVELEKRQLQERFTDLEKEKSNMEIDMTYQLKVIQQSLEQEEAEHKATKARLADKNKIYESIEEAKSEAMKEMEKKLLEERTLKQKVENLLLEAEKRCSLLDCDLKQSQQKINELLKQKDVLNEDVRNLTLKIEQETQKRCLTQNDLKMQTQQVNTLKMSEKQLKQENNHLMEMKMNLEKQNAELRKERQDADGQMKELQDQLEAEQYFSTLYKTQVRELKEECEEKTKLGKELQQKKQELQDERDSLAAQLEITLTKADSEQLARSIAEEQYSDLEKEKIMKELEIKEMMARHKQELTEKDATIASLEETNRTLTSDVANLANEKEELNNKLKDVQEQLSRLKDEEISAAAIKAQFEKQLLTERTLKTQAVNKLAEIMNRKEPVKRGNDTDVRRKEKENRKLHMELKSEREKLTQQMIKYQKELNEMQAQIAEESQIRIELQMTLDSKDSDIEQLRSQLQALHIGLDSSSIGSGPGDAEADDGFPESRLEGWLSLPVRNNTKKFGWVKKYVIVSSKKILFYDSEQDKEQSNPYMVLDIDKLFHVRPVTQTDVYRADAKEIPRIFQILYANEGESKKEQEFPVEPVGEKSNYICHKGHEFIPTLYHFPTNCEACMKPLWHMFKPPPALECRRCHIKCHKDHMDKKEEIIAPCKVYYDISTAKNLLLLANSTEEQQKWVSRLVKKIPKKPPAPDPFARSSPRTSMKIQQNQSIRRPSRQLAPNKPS
row,SMILES,IC50
1,"O=C1N(c2ccc(-c3cn[nH]c3)cc2)CCN1C(CO)c1ccccc1 (single isomer, unassigned) [Example 163, 1-(4-(1H-pyrazol-4-yl)phenyl)-3-(2-hydroxy-1-phenylethyl) imidazolidin-2-one]",2.1 to 20 nM
2,"CC(C)COc1cccc(CN2CCN(c3ccc(-c4cn[nH]c4)cn3)C2=O)c1 [Example 444, 1-(5-(1H-pyrazol-4-yl)pyridin-2-yl)-3-(3-isobutoxybenzyl)imidazolidin-2-one]",20.1 to 200 nM
3,"COc1cc(F)cc(CN2CCN(c3cc(OC)c(-c4cn[nH]c4)cn3)C2=O)c1 [Example 472, 1-(3-fluoro-5-methoxybenzyl)-3-(4-methoxy-5-(1H-pyrazol-4-yl)pyridin-2-yl)imidazolidin-2-one]",2.1 to 20 nM
4,"COc1cccc(C(CO)N2CCN(c3ccc(-c4cn[nH]c4)c(C)c3)C2=O)c1 (single isomer, unassigned) [Example 164, 1-(2-hydroxy-1-(3-methoxy-phenyl)ethyl)-3-(3-methyl-4-(1H-pyrazol-4-yl)phenyl) imidazolidin-2-one]",200 to 2000 nM
5,"COc1cccc(CN2CCN(c3ccc(-c4ccnc(N)c4)cc3)C2=O)c1 [Example 62, 1-(4-(2-Aminopyridin-4-yl)phenyl)-3-(3-methoxybenzyl)imidazolidin-2-one, TFA]",20.1 to 200 nM
6,"COc1nc(N2CCN(C(C)c3cccc(OCC4CC4)c3)C2=O)ccc1-c1cn[nH]c1 (single isomer, unassigned) [Example 213, 1-(1-(3-(cyclopropylmethoxy)phenyl)ethyl)-3-(6-methoxy-5-(1H-pyrazol-4-yl)pyridin-2-yl)imidazolidin-2-one]",200 to 2000 nM
7,"COc1cccc(C(C)n2ccn(-c3ccc(-c4cn[nH]c4)c(C)n3)c2=O)c1 (single isomer, unassigned) [Example 188, 1-(1-(3-methoxy-phenyl)ethyl)-3-(6-methyl-5-(1H-pyrazol-4-yl)pyridin-2-yl)-1H-imidazol-2(3H)-one]",< 2 nM
8,"COc1cccc(CN2CC(CO)N(c3ccc(-c4cn[nH]c4)cc3)C2=O)c1 (single isomer, unassigned; (-)) [Example 47, (−)-3-(4-(1H-Pyrazol-4-yl)phenyl)-4-(hydroxymethyl)-1-(3-methoxybenzyl)imidazolidin-2-one]",20.1 to 200 nM
9,"O=C1CN(c2ccc(-c3cn[nH]c3)cc2)C(=O)N1Cc1cccc(F)c1 [Example 114, 1-(4-(1H-pyrazol-4-yl)phenyl)-3-(3-fluoro-benzyl)imidazolidine-2,4-dione]",20.1 to 200 nM
10,"COc1nc(N2CCN(Cc3ccccc3F)C2=O)ccc1-c1cn[nH]c1 [Example 244, 1-(2-fluorobenzyl)-3-(6-methoxy-5-(1H-pyrazol-4-yl)pyridin-2-yl)imidazolidin-2-one]",2.1 to 20 nM
11,"COc1cc(F)cc(CN2C(=O)N(c3ccc(-c4cn[nH]c4)cn3)C[C@H]2CO)c1 [Example 312, (S)-1-(5-(1H-pyrazol-4-yl)pyridin-2-yl)-3-(3-fluoro-5-methoxybenzyl)-4-(hydroxymethyl)imidazolidin-2-one]",2.1 to 20 nM
12,"COc1ccc(F)c(Cn2ccn(-c3ccc(-c4cn[nH]c4)cc3)c2=O)c1 [Example 338, 1-(4-(1H-pyrazol-4-yl)phenyl)-3-(2-fluoro-5-methoxybenzyl)-1H-imidazol-2(3H)-one]",20.1 to 200 nM
13,"O=C1N(Cc2cccc(C(F)(F)F)c2)CCN1c1ccc(-c2cn[nH]c2)cn1 [Example 240, 1-(5-(1H-pyrazol-4-yl)pyridin-2-yl)-3-(3-(trifluoromethyl)benzyl)imidazolidin-2-one]",200 to 2000 nM
14,"COc1cccc(C(C)n2ccn(-c3ccc(-c4ccnc(F)c4)cc3)c2=O)c1 (single isomer, unassigned) [Example 327, 1-(4-(2-fluoropyridin-4-yl)phenyl)-3-(1-(3-methoxyphenyl)ethyl)-1H-imidazol-2(3H)-one]",200 to 2000 nM
15,"COc1cccc(CN2CCN(c3ccc(-c4cn[nH]c4)c(C)n3)C2=O)c1 [Example 179, 1-(3-methoxy-benzyl)-3-(6-methyl-5-(1H-pyrazol-4-yl)pyridin-2-yl)-imidazolidin-2-one]",2.1 to 20 nM
16,"CC(c1ccccc1)N1CC(=O)N(c2ccc(-c3cn[nH]c3)cc2)C1=O (stereo not shown) [Example 95, 3-(4-(1H-pyrazol-4-yl)phenyl)-1-(1-phenylethyl)imidazolidine-2,4-dione]",20.1 to 200 nM
17,"CCOc1cccc(C(C)N2CCN(c3ccc(-c4cn[nH]c4)c(CC)n3)C2=O)c1 (single isomer, unassigned) [Example 267, 1-(1-(3-ethoxyphenyl)ethyl)-3-(6-ethyl-5-(1H-pyrazol-4-yl)pyridin-2-yl)imidazolidin-2-one]",200 to 2000 nM
18,"COc1cc(N2C(=O)CN(Cc3ccccc3F)C2=O)ccc1-c1cn[nH]c1 [Example 91, 1-(2-fluorobenzyl)-3-(3-methoxy-4-(1H-pyrazol-4-yl)phenyl)imidazolidine-2,4-dione, TFA]",200 to 2000 nM
19,"COc1cccc(CN2C(=O)CN(c3ccc(-c4cn[nH]c4)c(OC)c3)C2=O)c1 [Example 105, 1-(3-methoxy-4-(1H-pyrazol-4-yl)phenyl)-3-(3-methoxy-benzyl)imidazolidine-2,4-dione]",2.1 to 20 nM
20,"O=C1N(Cc2ccc(Cl)c(Cl)c2)CCN1c1ccc(-c2cn[nH]c2)cn1 [Example 241, 1-(5-(1H-pyrazol-4-yl)pyridin-2-yl)-3-(3,4-dichlorobenzyl)imidazolidin-2-one]",200 to 2000 nM

# Further lines, results first:
row,IC50,SMILES
1,2.1 to 20 nM,"CCc1cc(-n2ccn(C(C)c3cccc(OC)c3)c2=O)ccc1-c1cn[nH]c1 (single isomer, unassigned) [Example 353, 1-(3-ethyl-4-(1H-pyrazol-4-yl)phenyl)-3-(1-(3-methoxyphenyl)ethyl)-1H-imidazol-2(3H)-one]"
2,200 to 2000 nM,"COc1cccc(C(CO)n2ccn(-c3ccc(-c4cn[nH]c4)c(OC)c3)c2=O)c1 (single isomer, unassigned) [Example 360, 1-(2-hydroxy-1-(3-methoxyphenyl)ethyl)-3-(3-methoxy-4-(1H-pyrazol-4-yl)phenyl)-1H-imidazol-2(3H)-one]"
3,2.1 to 20 nM,"COc1cccc(C(CO)n2ccn(-c3ccc(-c4cn[nH]c4)c(OC)c3)c2=O)c1 (single isomer, unassigned) [Example 361, 1-(2-hydroxy-1-(3-methoxyphenyl)ethyl)-3-(3-methoxy-4-(1H-pyrazol-4-yl)phenyl)-1H-imidazol-2(3H)-one]"
4,20.1 to 200 nM,"O=c1n(Cc2cc(F)cc(OCC3CC3)c2)ccn1-c1ccc(-c2cn[nH]c2)cc1 [Example 396, 1-(4-(1H-pyrazol-4-yl)phenyl)-3-(3-(cyclopropylmethoxy)-5-fluorobenzyl)-1H-imidazol-2(3H)-one]"
5,20.1 to 200 nM,"COc1cccc(C(CO)N2CCN(c3ccc(-c4cn[nH]c4)cc3)C2=O)c1 (single isomer, unassigned) [Example 154, 1-(4-(1H-Pyrazol-4-yl)phenyl)-3-(2-hydroxy-1-(3-methoxyphenyl)ethyl)imidazolidin-2-one]"
6,20.1 to 200 nM,"COc1cc(N2CC(=O)N(Cc3cccc(F)c3)C2=O)ccc1-c1cn[nH]c1 [Example 100, 3-(3-fluorobenzyl)-1-(3-methoxy-4-(1H-pyrazol-4-yl)phenyl)imidazolidine-2,4-dione]"
7,200 to 2000 nM,"O=C1CN(Cc2ccccc2F)C(=O)N1c1ccc(-c2cn[nH]c2)cc1 [Example 86, 3-(4-(1H-pyrazol-4-yl)phenyl)-1-(2-fluorobenzyl)imidazolidine-2,4-dione]"
8,20.1 to 200 nM,"COc1nc(N2CCN(Cc3ccc(F)cc3C)C2=O)ccc1-c1cn[nH]c1 [Example 249, 1-(4-fluoro-2-methylbenzyl)-3-(6-methoxy-5-(1H-pyrazol-4-yl)pyridin-2-yl)imidazolidin-2-one]"
9,20.1 to 200 nM,"COc1cc(N2CC(=O)N(C(C)c3ccccc3)C2=O)ccc1-c1cn[nH]c1 (stereo not shown) [Example 106, 1-(3-methoxy-4-(1H-pyrazol-4-yl)phenyl)-3-(1-phenylethyl) imidazolidine-2,4-dione]"
10,2.1 to 20 nM,"COc1ccc(F)cc1CN1CCN(c2ccc(-c3cn[nH]c3)c(F)c2)C1=O [Example 424, 1-(5-fluoro-2-methoxybenzyl)-3-(3-fluoro-4-(1H-pyrazol-4-yl)phenyl)imidazolidin-2-one]"
11,< 2 nM,"COc1cccc(C(C)N2CCN(c3ccc(-c4cn[nH]c4)c(OC)n3)C2=O)c1 (single isomer, unassigned) [Example 219, 1-(6-methoxy-5-(1H-pyrazol-4-yl)pyridin-2-yl)-3-(1-(3-methoxyphenyl)ethyl)imidazolidin-2-one]"
12,2.1 to 20 nM,"COc1cc(CN2CCN(c3ccc(-c4cn[nH]c4)c(F)c3)C2=O)ccc1F [Example 434, 1-(4-fluoro-3-methoxybenzyl)-3-(3-fluoro-4-(1H-pyrazol-4-yl)phenyl)imidazolidin-2-one]"
13,2.1 to 20 nM,"COc1cccc(CN2CCN(c3ccc(-c4cn[nH]c4)cc3OC)C2=O)c1 [Example 10, 1-(2-Methoxy-4-(1H-pyrazol-4-yl)phenyl)-3-(3-methoxybenzyl)imidazolidin-2-one]"
14,20.1 to 200 nM,"COc1cccc(CN2CCN(c3ccc(-c4cn[nH]c4)c(F)c3)C2=O)c1F [Example 433, 1-(2-fluoro-3-methoxybenzyl)-3-(3-fluoro-4-(1H-pyrazol-4-yl)phenyl)imidazolidin-2-one]"
15,20.1 to 200 nM,"COc1cccc(CN2CCN(c3ccc(-c4cn[nH]c4)cn3)C2=O)c1F [Example 427, 1-(5-(1H-pyrazol-4-yl)pyridin-2-yl)-3-(2-fluoro-3-methoxybenzyl)imidazolidin-2-one]"
16,20.1 to 200 nM,"COc1cc(N2CC(=O)N(Cc3c(F)cccc3F)C2=O)ccc1-c1cn[nH]c1 [Example 102, 3-(2,6-difluoro-benzyl)-1-(3-methoxy-4-(1H-pyrazol-4-yl)phenyl) imidazolidine-2,4-dione]"
17,200 to 2000 nM,"COC(=O)CC(c1cccc(OC)c1)N1CCN(c2ccc(-c3cn[nH]c3)c(OC)c2)C1=O (stereo not shown) [Example 20, Methyl 3-(3-(3-methoxy-4-(1H-pyrazol-4-yl)phenyl)-2-oxoimidazolidin-1-yl)-3-(3-methoxyphenyl)propanoate]"
